The record followed here is PubChem BioAssay AID1259407 (Chemical Carcinogenesis Research Information System (CCRIS), 2018).

This series relates to CCRIS mutagenicity, Ames/micronucleus/aberration tests. In words: CCRIS mutagenicity studies.
[1] abbreviates: Test System: AMES SALMONELLA TYPHIMURIUM, Strain/Indicator: TA98, Metabolic Activation: NONE, Method: STANDARD PLATE.
The mark [2] stands for this setting: Test System: AMES SALMONELLA TYPHIMURIUM, Strain/Indicator: TA100, Metabolic Activation: NONE, Method: STANDARD PLATE.
Setting [3] is: Test System: AMES SALMONELLA TYPHIMURIUM, Strain/Indicator: TA98, Metabolic Activation: RAT, LIVER, S-9, AROCLOR 1254, Method: STANDARD PLATE.
[4] abbreviates: Test System: AMES SALMONELLA TYPHIMURIUM, Strain/Indicator: TA1538, Metabolic Activation: NONE, Method: STANDARD PLATE.
Setting [5] is: Test System: AMES SALMONELLA TYPHIMURIUM, Strain/Indicator: TA1538, Metabolic Activation: RAT, LIVER, S-9, AROCLOR 1254, Method: STANDARD PLATE.

Active and inactive are the calls of the source. How the calls were made is not given here.

`O=[N+]([O-])c1ccc2c(c1)Oc1ccccc1O2`: the mutagenic call by setting is: (Test System: AMES SALMONELLA TYPHIMURIUM, Strain/Indicator: TA98(1,8-DNP6), Metabolic Activation: NONE, Method: PREINCUBATION) “active; positive”; (Test System: AMES SALMONELLA TYPHIMURIUM, Strain/Indicator: TA98(1,8-DNP6), Metabolic Activation: NONE, Method: SUSPENSION) “active; positive”; (Test System: AMES SALMONELLA TYPHIMURIUM, Strain/Indicator: TA98(1,8-DNP6), Metabolic Activation: RAT, LIVER, S-9, PCB (5%), Method: PREINCUBATION) “active; positive”; (Test System: AMES SALMONELLA TYPHIMURIUM, Strain/Indicator: TA98(NR), Metabolic Activation: NONE, Method: SUSPENSION) “inactive; negative”; (Test System: AMES SALMONELLA TYPHIMURIUM, Strain/Indicator: TA98(NR), Metabolic Activation: RAT, LIVER, S-9 (15%), Method: PREINCUBATION) “active; positive”; (Test System: AMES SALMONELLA TYPHIMURIUM, Strain/Indicator: TA98(NR), Metabolic Activation: RAT, LIVER, S-9, 3-METHYLCHOLANTHRENE (15%), Method: PREINCUBATION) “active; positive”. Further, the mutagenic call (Test System: AMES SALMONELLA TYPHIMURIUM, Strain/Indicator: TA98(NR), Metabolic Activation: RAT, LIVER, S-9, BETA-NAPHTHOFLAVONE (15%), Method: PREINCUBATION) is “active; positive”; the mutagenic call (Test System: AMES SALMONELLA TYPHIMURIUM, Strain/Indicator: TA98(NR), Metabolic Activation: RAT, LIVER, S-9, PCB (5 OR 15%), Method: PREINCUBATION) was “active; positive”; the mutagenic call (Test System: AMES SALMONELLA TYPHIMURIUM, Strain/Indicator: TA98(NR), Metabolic Activation: RAT, LIVER, S-9, PHENOBARBITAL (15%), Method: PREINCUBATION) is “active; positive”; the mutagenic call (Test System: AMES SALMONELLA TYPHIMURIUM, Strain/Indicator: TA98, Metabolic Activation: NONE, Method: PREINCUBATION) is “active; positive”; the mutagenic call under setting [1] is “active; positive”; the mutagenic call (Test System: AMES SALMONELLA TYPHIMURIUM, Strain/Indicator: TA98, Metabolic Activation: NONE, Method: SUSPENSION) was “active; positive”. The mutagenic call runs as follows: (Test System: AMES SALMONELLA TYPHIMURIUM, Strain/Indicator: TA98, Metabolic Activation: RAT, LIVER, S-9, AROCLOR, Method: STANDARD PLATE) “active; positive”; (Test System: AMES SALMONELLA TYPHIMURIUM, Strain/Indicator: TA98, Metabolic Activation: RAT, LIVER, S-9, PCB (5%), Method: PREINCUBATION) “active; positive”; (Test System: AMES SALMONELLA TYPHIMURIUM, Strain/Indicator: TA98, Metabolic Activation: RAT, LIVER, S-9, PCB, Method: SUSPENSION) “active; positive”; (Test System: AMES SALMONELLA TYPHIMURIUM, Strain/Indicator: TA100, Metabolic Activation: NONE, Method: PREINCUBATION) “inactive; negative”; under setting [2], “active; positive”; (Test System: AMES SALMONELLA TYPHIMURIUM, Strain/Indicator: TA100, Metabolic Activation: NONE, Method: SUSPENSION) “inactive; negative”. Also, the mutagenic call reads like this: (Test System: AMES SALMONELLA TYPHIMURIUM, Strain/Indicator: TA100, Metabolic Activation: RAT, LIVER, S-9, AROCLOR, Method: STANDARD PLATE) “active; positive”; (Test System: AMES SALMONELLA TYPHIMURIUM, Strain/Indicator: TA100, Metabolic Activation: RAT, LIVER, S-9, PCB (5%), Method: PREINCUBATION) “inactive; negative”; (Test System: AMES SALMONELLA TYPHIMURIUM, Strain/Indicator: TA100, Metabolic Activation: RAT, LIVER, S-9, PCB, Method: SUSPENSION) “inactive; negative”.
For the molecule `COc1cc2nc3cc(N)c(OC)cc3nc2cc1N`, the mutagenic call (Test System: AMES SALMONELLA TYPHIMURIUM, Strain/Indicator: TA98, Metabolic Activation: S-9, Method: SUSPENSION/PLATE) is “active; positive”.
Regarding `c1ccc2c(c1)cc1cccc3c4cccc5cccc(c54)c2c13`, under “Test System: HUMAN H1A1V2 CELLS, Strain/Indicator: TK LOCUS, Metabolic Activation: NONE, Method: SUSPENSION/PLATE”, the mutagenic call is “active; positive”.
Consider `COc1ccc(CNCC(O)COc2ccc3[nH]c(=O)ccc3c2)cc1OC` (centres undefined), for which the mutagenic call under setting [1] was “inactive; negative”; the mutagenic call under setting [3] was “inactive; negative”; the mutagenic call under setting [2] was “inactive; negative”; the mutagenic call (Test System: AMES SALMONELLA TYPHIMURIUM, Strain/Indicator: TA100, Metabolic Activation: RAT, LIVER, S-9, AROCLOR 1254, Method: STANDARD PLATE) was “inactive; negative”; the mutagenic call (Test System: AMES SALMONELLA TYPHIMURIUM, Strain/Indicator: TA1535, Metabolic Activation: NONE, Method: STANDARD PLATE) is “inactive; negative”; the mutagenic call (Test System: AMES SALMONELLA TYPHIMURIUM, Strain/Indicator: TA1535, Metabolic Activation: RAT, LIVER, S-9, AROCLOR 1254, Method: STANDARD PLATE) is “inactive; negative”. Also, the mutagenic call is “inactive; negative” (Test System: AMES SALMONELLA TYPHIMURIUM, Strain/Indicator: TA1537, Metabolic Activation: NONE, Method: STANDARD PLATE); “inactive; negative” (Test System: AMES SALMONELLA TYPHIMURIUM, Strain/Indicator: TA1537, Metabolic Activation: RAT, LIVER, S-9, AROCLOR 1254, Method: STANDARD PLATE); “inactive; negative” under setting [4]; “inactive; negative” under setting [5]; “inactive; negative” (Test System: E. COLI, Strain/Indicator: WP2 UVRA, Metabolic Activation: NONE, Method: STANDARD PLATE); “inactive; negative” (Test System: E. COLI, Strain/Indicator: WP2 UVRA, Metabolic Activation: RAT, LIVER, S-9, AROCLOR 1254, Method: STANDARD PLATE). Moreover, the mutagenic call (Test System: MOUSE LYMPHOMA, Strain/Indicator: L5178Y (TK+/TK-), Metabolic Activation: NONE, Method: SUSPENSION/PLATE) was “active; positive”.
As for `CC(=O)N(O)c1ccc([N+](=O)[O-])cc1`, the mutagenic call by setting is: (Test System: AMES SALMONELLA TYPHIMURIUM, Strain/Indicator: TA98(NR), Metabolic Activation: NONE, Method: STANDARD PLATE) “inactive; negative”; (Test System: AMES SALMONELLA TYPHIMURIUM, Strain/Indicator: TA98(NR), Metabolic Activation: RAT, LIVER, S-9, AROCLOR 1254, Method: STANDARD PLATE) “inactive; negative”; under setting [1], “active; positive”; under setting [3], “active; positive”; (Test System: AMES SALMONELLA TYPHIMURIUM, Strain/Indicator: TA1538(NR), Metabolic Activation: NONE, Method: STANDARD PLATE) “inactive; negative”; (Test System: AMES SALMONELLA TYPHIMURIUM, Strain/Indicator: TA1538(NR), Metabolic Activation: RAT, LIVER, S-9, AROCLOR 1254, Method: STANDARD PLATE) “inactive; negative”. The mutagenic call is “active; positive” under setting [4] and “active; positive” under setting [5].
